Experimental data: patent US20260248852A1, “SYNTHETIC ANTIGEN RECEPTORS FOR COVALENT IMMUNE RECRUITERS AND METHODS AND USES THEREOF” (McMaster University, priority 2022, published 2026)
Entries after “also recorded” stand apart in the source; their conditions may differ.

Columns and labels:
Assay type in all cases: cell-based, human
[1] = tested on: HEK293-WT cells; assay: Cytokine production of engineered ABT cells, controls with 293-WT cells or no tumor cells; conditions: Media+CIR; 293-WT+CIR
Method: (§1) Measuring cytokine production following stimulation with HEK-293 cells: In a 96 well round bottom plate, 4E5 HEK293-PSMA cells (PSMA expressing) or HEK293-WT cells were incubated with 4E5 Anti-DNP TAC ABT cells, Anti-DNP DAP12 SAR ABT cells, or Anti-CD28 CAR ABT-cells. […] To stop the activation 20 mM EDTA was added and incubated for 15 minutes. Cells were stained for surface expression of CD4 and CD8, fixed and permeabilized in Cytofix/Cytoperm buffer, and stained with APC-conjugated mouse anti-human interferon-gamma, and FITC-conjugated mouse anti-human tumor necrosis factor-alpha. Cells were then run on the Beckman Coulter Cytoflex flow cytometer. The percent of cells positive for tumor necrosis factor-alpha and interferon-gamma for CD4 and CD8 T-cell populations were graphed separately showing the same overall trends.

[2] = tested on: 293-PSMA cells; assay: Proliferation of adapter functionalized engineered ABT cells (CellTrace Violet)
Method: Each engineered T cell was also cultured in media alone as a control to compare to. All proliferation assay samples were incubated for 3 days at 37° C. and 5% CO2. Cells were then stained with Live/Dead Fixable Near-IR stain, PerCP-Cy5.5-conjugated mouse anti-human CD8a, Alexa Fluor 700-conjugated mouse anti-human CD4, VioBright FITC-conjugated mouse anti-human NGFR, and BV605-conjugated mouse anti-human CD3. Flow cytometry data were acquired.

[3] = tested on: PSMA-positive LNCaP cells; assay: Anti-DNP GDT cell mediated killing of LNCaP cells (Incucyte)
Method: Measuring T cell mediated killing of LNCaP cells: LNCaP prostate cancer cells, which are prostate specific membrane antigen (PSMA) positive, were engineered with Nuclight Red lentivirus to produce cells with nuclear localized red fluorescence to allow for ease of imaging in these experiments. […] Samples were run in triplicate. The number of LNCaP cells per well at each time point was calculated using the Incucyte cell by cell analysis software and plotted. The area under the growth curve was used as a metric for tumor cell growth for this figure. The larger the area, the greater the tumor cell growth that occurred over the 3 days. The area under the curve for the LNCaP control and each condition were used to calculate the % cytotoxicity.

[4] = tested on: 293-PSMA cells; assay: CD69 and Nur77 expression of activated ABT cells with 293-PSMA cells
From the text: (§2) Cells were stained for surface marker expression via Pacific Blue-conjugated mouse anti-human CD4, and AlexaFluor700-conjugated mouse anti-human CD8a, VioBright FITC-conjugated mouse anti-human NGFR, and anti-huCD69, fixed and permeabilized in Permiabilization concentrate diluted in permeabilization diluent, and stained intracellularly with PE-conjugated mouse anti-mouse Nur77.

[5] = tested on: 293-WT cells (do not express PSMA); assay: CD69 and Nur77 expression of ABT cells with 293-WT cells; conditions: engineered ABT cells, 100 nM
From the text: as §2

[6] = tested on: PSMA transduced HEK-293 cells; assay: IFN-gamma / TNF-alpha production of Anti-DNP TAC ABT cells following stimulation with HEK-293 PSMA cells; conditions: Anti-DNP TAC ABT cells prelabelled 6 hours; co-culture 4 hours
Method: The cells were co-cultured together for 4 hours at 37 degrees. Golgi plug was added prior to the co-incubation to prevent cytokine secretion. To stop the activation 20 mM EDTA was added and incubated for 15 minutes. The cells were spun down, media was aspirated, and the cells were stored in 200 μL of cRPMI overnight at 4 degrees. The next day, the cells were surface stained with anti-CD4 Pacific Blue, anti-CD8 Alexa Fluor 700, and anti-NGFR Viobright FITC. The cells were then fixed and permeabilized using a fix/perm buffer solution. The cells were then intracellularly stained with anti-CD3 BV605, anti-TNF-alpha PE-CY7, and anti-IFN-gamma APC. Cells were then run on the Beckman Coulter Cytoflex flow cytometer. The percent of cells positive for TNF-alpha and IFN-gamma, as well as cells positive for both were recorded in the table for the separate CD4 and CD8 T-cell populations.

[7] = tested on: HEK293-PSMA cells (PSMA expressing); assay: Cytokine production of engineered ABT cells following stimulation with HEK293-PSMA cells
Method: as §1

[8] = tested on: PSMA-positive LNCaP cells; assay: Anti-DNP TAC ABT cell mediated killing of LNCaP cells (Incucyte)
Method: Measuring T cell mediated killing of LNCaP cells: LNCaP prostate cancer cells, which are prostate specific membrane antigen (PSMA) positive, were engineered with Nuclight Red lentivirus to produce cells with nuclear localized red fluorescence to allow for ease of imaging in these experiments. […] The 3 components were co-cultured for 3 days with 4 images per well taken every 6 hours. Samples were run in triplicate. The number of LnCap cells per well at each time point was calculated using the Incucyte cell by cell analysis software and plotted. The area under the growth curve was used as a metric for tumor cell growth for this figure. The larger the area, the greater the tumor cell growth that occurred over the 3 days. The area under the curve for the LnCap control and each condition were used to calculate the % cytotoxicity.

[9] = tested on: PSMA transduced HEK-293 cells; assay: CD69 upregulation of DNP-TAC T cells following stimulation with HEK-293 PSMA cells; conditions: DNP-TAC T cells pre labelled 6 hours; co-culture overnight
Method: The cells were co-cultured together overnight at 37 degrees. To stop the activation, 20 mM EDTA was added and incubated for 15 minutes. The cells were spun down, media was aspirated, and the cells were stored in 200 μL of cRPMI at 4 degrees prior to staining. The cells were stained with Live-Dead Zombie Aqua, anti-CD3 BV605, anti-CD4 Pacific Blue, anti-CD8 Alexa Fluor 700, anti-NGFR Viobright FITC, and anti-CD69 BV650. Upon staining the cells were run on the Beckman Coulter Cytoflex flow cytometer and analyzed for CD69 expression.

[10] = tested on: uPAR-positive A172 cells; assay: Anti-DNP GDT cell mediated killing of A172 cells; conditions: Anti-DNP CD28 CAR GDT cells; E:T 8:1; 1, 10, 100 nM; 3 days
Method: Engineering GDT cells with Anti-DNP DAP12-SAR or Anti-DNP CD28 CAR: PBMC were seeded at 4E6 cells per well in a 24 well G-Rex plate in the presence of 1 ug/ml zoledronate and 1.5 ng/ml human IL2. Three days later, the cells were incubated overnight in a 24 well non tissue culture treated plate that was pre coated with retronectin and retrovirus supernatant containing viruses encoding the Anti-DNP DAP12-SAR or Anti-DNP CD28 CAR. The cells were then transferred back to the G-Rex plate and cultured for a further 11 days at which point, the cell product was collected, CD4/CD8 T cells were removed by magnetic selection and the purified engineered GDT cells were cryopreserved.
Measuring T cell mediated killing of A172 cells: A172 cells, which are urokinase type plasminogen activator receptor (uPAR) positive, were engineered with eGFP lentivirus to produce green fluorescent protein expressing cells. […] Also added to the wells were uPAR-CIR or uPAR-(N)CIR at a range of concentrations from 1 nM, 10 nM and 100 nM. […] Samples were run in triplicate. The green image mean of the wells at each time point was calculated using the Incucyte cell by cell analysis software and plotted to yield the following figures. […] For the analysis of killing by Anti-DNP CD28 CAR GDT cells, the area under the growth curve (AUC) was analyzed using PRISM Graphpad and to calculate the % cytotoxicity.

In the case of `O=C(O)CC[C@H](NC(=O)N[C@@H](CCCCNC(=O)NCCOCCOCCOCCOCCOCCOCCOCCOC(=O)n1cnc(CCNC(=O)CNc2ccc([N+](=O)[O-])cc2[N+](=O)[O-])c1)C(=O)O)C(=O)O` [PSMA-CIR, DNP-Acyl Imidazole-Glutamate Urea Lysine], the “cytokine production in controls” value [1] is reported as “the controls showed no cytokine production”, the “T cell proliferation, PSMA-CIR versus PSMA-(N)CIR” value ([2]; Anti-DNP CD28 CAR T cells) is reported as “performed similarly” and the “T cell proliferation (percent divided)” value ([2]; Anti-DNP DAP12 SAR T cells, 1 nM, 10 nM, or 100 nM) is reported as “robust proliferation”. The “T cell proliferation (percent divided)” value ([2]; Anti-DNP TAC T cells, 1, 10, 100 nM, 3 days) was “only entered proliferation when co-cultured with 293-PSMA cells and 100 nM PSMA-CIR”, the “adapter concentration at which tumor killing is observed” value ([3]; Anti-DNP CD28 CAR GDT cells) was no more than 15 nM and the “killing of LNCaP cells” value ([3]; Anti-DNP CD28 CAR GDT cells, 125 nM adapter) was “could direct T cell cytotoxicity; also recorded: displayed tumor growth control”. For the same molecule, the “killing of LNCaP cells” value ([3]; Anti-DNP DAP12-SAR GDT cells, 125 nM adapter) was “could trigger killing; also recorded: only suppressed tumor growth in the presence of the PSMA-CIR”, the “adapter concentration at which tumor killing is observed” value ([3]; Anti-DNP DAP12 SAR GDT cells) was no more than 15 nM and the “killing of LNCaP cells after preincubation and wash” value ([3]; Anti-DNP DAP12 SAR and Anti-DNP CD28 CAR GDT cells, 1 uM adapter for 6 hours, washed, then co-culture) was “retained the ability to kill LNCaP cells”. The “killing of LNCaP cells” value ([3]; CD28 CAR GDT cells, 10 nM adapter) was “robust LNCaP killing”, the “LNCaP killing over a range of concentrations” value ([3]; both Anti-DNP DAP12-SAR GDT cells and Anti-DNP CD28 CAR GDT cells, 15.6 nM-250 nM) was “sustained across all concentrations” and the “T cell activation (Nur77, CD69), compared to PSMA-(N)CIR” value ([4]; Anti-DNP DAP12-SAR T cells, 10 nM and 1 nM) was “greater activation at both concentrations”. The “T cell activation (Nur77, CD69)” value ([4]; Anti-DNP TAC-T cells, 10 nM and 1 nM) was “could elicit T cell activation”, the “T cell activation (Nur77, CD69), compared to PSMA-(N)CIR” value ([4]; Anti-DNP-CD28 CAR T cells) was “much greater activation” and the “upregulation of Nur77 and CD69” value ([4]; TAC, DAP12-SAR and CD28-CAR ABT cells, 293-PSMA, 100 nM, 4 hours) was “Upregulation of Nur77 and CD69; also recorded: only occurred in the presence of CIR and PSMA-expressing target cells”. The “upregulation of Nur77 and CD69, CIR compared to (N)CIR” value ([4]; all engineered ABT cells, 293-PSMA, 10 nM and 1 nM) was “stronger with CIR compared to (N)CIR; also recorded: increased activation and downstream signal strength”, the “Nur77 and CD69 (off-target activation)” value [5] was “no increase of Nur77 or CD69 above the media-only control” and the “production of IFN-gamma and TNF-alpha” value [6] was “production of IFN-gamma and TNF-alpha”. For the same molecule, the “cytokine production, compared to PSMA-(N)CIR” value ([7]; CD28-CAR T cells, 1 nM, 10 nM) was “increased cytokine production at lower concentrations”, the cytokine production ([7]; CD28-CAR T cells, highest concentration (100 nM)) was “equivalent levels of cytokine production” and the cytokine production ([7]; DAP12-SAR T cells, 1, 10, 100 nM) was “strongest activation was mediated by the CIR”. The cytokine production ([7]; TAC T cells, 1, 10, 100 nM) was “only activated by the CIR”, the “production of interferon-gamma and tumor necrosis factor-alpha” value ([7]; all three engineered receptors (TAC, DAP12-SAR, CD28-CAR) ABT cells, 1, 10, 100 nM) was “target specific production of interferon-gamma and tumor necrosis factor-alpha; also recorded: Increased cytokine production” and the “killing of LNCaP cells” value ([8]; E:T 8:1, 15.63 nM to 125 nM, 3 days) was “could trigger killing; also recorded: promoted killing of the LNCaP cells at low nM concentrations”. The “concentration effective at engaging tumor killing” value ([8]; E:T 8:1, 3 days) was no more than 15 nM and the “T cell activation based on upregulation of CD69” value [9] was “PSMA-specific activation; also recorded: capable of stimulating Anti-DNP TAC T cell activation”.

`CC(C)C[C@H](NC(=O)[C@H](Cc1ccc(O)cc1)NC(=O)[C@@H](CCCNC(=N)N)NC(=O)[C@@H](CO)NC(=O)[C@H](Cc1ccccc1)NC(=O)[C@H](CC1CCCCC1)NC(=O)[C@H](CC(=O)O)NC(=O)CNC(=O)[C@H](CO)NC(=O)CNC(=O)CNC(=O)[C@H](CCCCNc1ccc([N+](=O)[O-])cc1[N+](=O)[O-])NC(=O)c1cccc(S(=O)(=O)F)c1)C(=O)N[C@@H](Cc1c[nH]c2ccccc12)C(=O)N[C@@H](CO)C(=O)O` [uPAR-CIR, DNP-SuFEx-uPAR binding peptide] was tested, and the “cytotoxicity towards A172 cells” value [10] was “exhibited cytotoxicity; also recorded: can be redirected”.
